Assay results published in publication PMC6364417, “Kinase inhibitor library screening identifies synergistic drug combinations effective in sensitive and resistant melanoma cells” (Journal of Experimental & Clinical Cancer Research : CR, 2019).

Assays:
Assay in all cases: Kinase inhibitor library screening, PrestoBlue cell viability, 1 or 10 μM, 72 h
[1] = tested on: IGR37-GP cells (Dabrafenib-resistant); details: for cell viability (kinase inhibitor library screening) / Cell viability in kinase inhibitor library screening, IGR37 GP, 10μΜ / Cell viability in kinase inhibitor library screening, IGR37 GP, 1μΜ: IGR37 GP, 72 h; for Cell viability in kinase inhibitor library screening, IGR37 GP, 1μΜ: in %
Description: (§1) After 72 h of treatment, cell viability was assessed using the PrestoBlue Cell Viability Reagent (ThermoFisher Scientific). Measurements were performed with the CLARIOstar Monochromator microplate reader (BMG Labtech).
(§2) Kinase inhibitor library screening. […] Each cell line was treated in its sensitive form (parental), and also as 2 resistant derivatives, which were made resistant to either Vemurafenib (XP) or Dabrafenib (GP). Drugs were added at 2 different concentrations, 1 and 10 μM, for 72 h and cell viability was assessed using the PrestoBlue Cell Viability assay. Results are depicted as % viability compared to untreated cells. Each cell line was analyzed at least in duplicate. […] (XLSX 95 kb)

[2] = tested on: IGR37 cells (parental); details: for cell viability (kinase inhibitor library screening) / Cell viability in kinase inhibitor library screening, IGR37 Parental, 1μΜ / Cell viability in kinase inhibitor library screening, IGR37 Parental, 10μΜ: IGR37 Parental, 72 h; for Cell viability in kinase inhibitor library screening, IGR37 Parental, 1μΜ / Cell viability in kinase inhibitor library screening, IGR37 Parental, 10μΜ: in %
Description: as §1, §2

[3] = tested on: 501Mel-GP cells (Dabrafenib-resistant); details: 72 h; for cell viability (kinase inhibitor library screening) / Cell viability in kinase inhibitor library screening, 501Mel GP, 1μΜ / Cell viability in kinase inhibitor library screening, 501Mel GP, 10μΜ: 501Mel GP; for Cell viability in kinase inhibitor library screening, 501Mel GP, 1μΜ / Cell viability in kinase inhibitor library screening, 501Mel GP, 10μΜ: in %
Description: as §1, §2

[4] = tested on: 501Mel-XP cells (Vemurafenib-resistant); details: 72 h; for cell viability (kinase inhibitor library screening) / Cell viability in kinase inhibitor library screening, 501Mel XP, 1μΜ / Cell viability in kinase inhibitor library screening, 501Mel XP, 10μΜ: 501Mel XP; for Cell viability in kinase inhibitor library screening, 501Mel XP, 1μΜ / Cell viability in kinase inhibitor library screening, 501Mel XP, 10μΜ: in %
Description: as §1, §2

[5] = tested on: A375-XP cells (Vemurafenib-resistant); details: for cell viability (kinase inhibitor library screening) / Cell viability in kinase inhibitor library screening, A375 XP, 1μΜ / Cell viability in kinase inhibitor library screening, A375 XP, 10μΜ: A375 XP, 72 h
Description: as §1, §2

[6] = tested on: IGR37-XP cells (Vemurafenib-resistant); details: for cell viability (kinase inhibitor library screening) / Cell viability in kinase inhibitor library screening, IGR37 XP, 10μΜ / Cell viability in kinase inhibitor library screening, IGR37 XP, 1μΜ: IGR37 XP, 72 h; for Cell viability in kinase inhibitor library screening, IGR37 XP, 1μΜ: in %
Description: as §1, §2

[7] = tested on: 501Mel cells (parental); details: 72 h; for cell viability (kinase inhibitor library screening) / Cell viability in kinase inhibitor library screening, 501Mel Parental, 1μΜ / Cell viability in kinase inhibitor library screening, 501Mel Parental, 10μΜ: 501Mel Parental; for Cell viability in kinase inhibitor library screening, 501Mel Parental, 1μΜ / Cell viability in kinase inhibitor library screening, 501Mel Parental, 10μΜ: in %
Description: as §1, §2

[8] = tested on: A375 cells (parental); details: for cell viability (kinase inhibitor library screening) / Cell viability in kinase inhibitor library screening, A375 Parental, 10μΜ / Cell viability in kinase inhibitor library screening, A375 Parental, 1μΜ: A375 Parental, 72 h
Description: as §1, §2

[9] = tested on: A375-GP cells (Dabrafenib-resistant); details: for cell viability (kinase inhibitor library screening) / Cell viability in kinase inhibitor library screening, A375 GP, 1μΜ / Cell viability in kinase inhibitor library screening, A375 GP, 10μΜ: A375 GP, 72 h
Description: as §1, §2

| SMILES | Cell viability in kinase inhibitor library screening, IGR37 GP, 10μΜ ([1]; 10μΜ) [%] | Cell viability in kinase inhibitor library screening, IGR37 GP, 1μΜ ([1]; 1μΜ) | Cell viability in kinase inhibitor library screening, IGR37 Parental, 1μΜ ([2]; 1μΜ) | Cell viability in kinase inhibitor library screening, IGR37 Parental, 10μΜ ([2]; 10μΜ) | Cell viability in kinase inhibitor library screening, 501Mel GP, 1μΜ ([3]; 1μΜ) | Cell viability in kinase inhibitor library screening, 501Mel GP, 10μΜ ([3]; 10μΜ) | Cell viability in kinase inhibitor library screening, 501Mel XP, 1μΜ ([4]; 1μΜ) | Cell viability in kinase inhibitor library screening, 501Mel XP, 10μΜ ([4]; 10μΜ) | Cell viability in kinase inhibitor library screening, A375 XP, 1μΜ ([5]; 1μΜ) | Cell viability in kinase inhibitor library screening, A375 XP, 10μΜ ([5]; 10μΜ) | Cell viability in kinase inhibitor library screening, IGR37 XP, 10μΜ ([6]; 10μΜ) [%] | Cell viability in kinase inhibitor library screening, IGR37 XP, 1μΜ ([6]; 1μΜ) | Cell viability in kinase inhibitor library screening, 501Mel Parental, 1μΜ ([7]; 1μΜ) | Cell viability in kinase inhibitor library screening, 501Mel Parental, 10μΜ ([7]; 10μΜ) | Cell viability in kinase inhibitor library screening, A375 Parental, 10μΜ ([8]; 10μΜ) | Cell viability in kinase inhibitor library screening, A375 Parental, 1μΜ ([8]; 1μΜ) | Cell viability in kinase inhibitor library screening, A375 GP, 1μΜ ([9]; 1μΜ) | Cell viability in kinase inhibitor library screening, A375 GP, 10μΜ ([9]; 10μΜ) | also measured |
| --- | --- | --- | --- | --- | --- | --- | --- | --- | --- | --- | --- | --- | --- | --- | --- | --- | --- | --- | --- |
| CCN1CCN(C(=O)Cc2ccc(Nc3ncc(F)c(Nc4ccc(C(=O)Nc5ccccc5Cl)cc4)n3)cc2)CC1 [Aurora A Inhibitor I] |  |  |  |  |  |  |  |  |  |  |  |  |  |  |  |  |  |  | cell viability (kinase inhibitor library screening) ([1]; 1μΜ): 90.4%; cell viability (kinase inhibitor library screening) ([1]; 10μΜ): 5.3%; cell viability (kinase inhibitor library screening) ([2]; 1μΜ): 94.5%; cell viability (kinase inhibitor library screening) ([2]; 10μΜ): 4.6%; cell viability (kinase inhibitor library screening) ([3]; 1μΜ): 99.5%; cell viability (kinase inhibitor library screening) ([3]; 10μΜ): 29.4%; cell viability (kinase inhibitor library screening) ([4]; 1μΜ): 75.4%; cell viability (kinase inhibitor library screening) ([4]; 10μΜ): 4.3%; cell viability (kinase inhibitor library screening) ([5]; 1μΜ): 95.8%; cell viability (kinase inhibitor library screening) ([5]; 10μΜ): 37.0%; cell viability (kinase inhibitor library screening) ([6]; 1μΜ): 92.1%; cell viability (kinase inhibitor library screening) ([6]; 10μΜ): 2.4%; cell viability (kinase inhibitor library screening) ([7]; 1μΜ): 105.7%; cell viability (kinase inhibitor library screening) ([7]; 10μΜ): 41.4%; cell viability (kinase inhibitor library screening) ([8]; 10μΜ): 48.5%; cell viability (kinase inhibitor library screening) ([8]; 1μΜ): 96.9%; cell viability (kinase inhibitor library screening) ([9]; 1μΜ): 90.9%; cell viability (kinase inhibitor library screening) ([9]; 10μΜ): 42.7% |
| Cn1c(=O)n(-c2ccc(C(C)(C)C#N)cc2)c2c3cc(-c4cnc5ccccc5c4)ccc3ncc21 [BEZ235 (NVP-BEZ235)] | 6.1 | 53.8 | 26.1 | 12.4 | 19.1 | 6.4 | 11.4 | 0.9 | 20.9 | 13.2 | 5.2 | 49.3 | 13.9 | 2.6 | 10.9 | 23.9 | 22.0 | 8.5 |  |
| CCN1CCN(c2ccc(Nc3cc(N(C)C(=O)Nc4c(Cl)c(OC)cc(OC)c4Cl)ncn3)cc2)CC1 [BGJ398 (NVP-BGJ398)] |  |  |  |  |  |  |  |  |  |  |  |  |  |  |  |  |  |  | viability at 1 µM ([1]; Homo sapiens, IGR-37, 72 h, read-out: cell viability, IGR37 GP, 1μΜ): 87.7%; viability at 10 µM ([1]; Homo sapiens, IGR-37, 72 h, read-out: cell viability, IGR37 GP, 10μΜ): 3.2%; viability at 1 µM ([2]; Homo sapiens, IGR-37, 72 h, read-out: cell viability, IGR37 Parental, 1μΜ): 100%; viability at 10 µM ([2]; Homo sapiens, IGR-37, 72 h, read-out: cell viability, IGR37 Parental, 10μΜ): 4.3%; viability at 1 µM ([3]; Homo sapiens, read-out: cell viability, 501Mel GP, 1μΜ): 108%; viability at 10 µM ([3]; Homo sapiens, read-out: cell viability, 501Mel GP, 10μΜ): 0.142%; viability at 1 µM ([4]; Homo sapiens, read-out: cell viability, 501Mel XP, 1μΜ): 97.9%; viability at 10 µM ([4]; Homo sapiens, read-out: cell viability, 501Mel XP, 10μΜ): -0.109%; viability at 1 µM ([5]; Homo sapiens, A-375, 72 h, read-out: cell viability, A375 XP, 1μΜ): 104%; viability at 10 µM ([5]; Homo sapiens, A-375, 72 h, read-out: cell viability, A375 XP, 10μΜ): 3.9%; viability at 1 µM ([6]; Homo sapiens, IGR-37, 72 h, read-out: cell viability, IGR37 XP, 1μΜ): 97.5%; viability at 10 µM ([6]; Homo sapiens, IGR-37, 72 h, read-out: cell viability, IGR37 XP, 10μΜ): 1%; viability at 1 µM ([7]; Homo sapiens, read-out: cell viability, 501Mel Parental, 1μΜ): 96.6%; viability at 10 µM ([7]; Homo sapiens, read-out: cell viability, 501Mel Parental, 10μΜ): 0.424%; viability at 1 µM ([8]; Homo sapiens, A-375, 72 h, read-out: cell viability, A375 Parental, 1μΜ): 101%; viability at 10 µM ([8]; Homo sapiens, A-375, 72 h, read-out: cell viability, A375 Parental, 10μΜ): 9%; viability at 1 µM ([9]; Homo sapiens, A-375, 72 h, read-out: cell viability, A375 GP, 1μΜ): 101%; viability at 10 µM ([9]; Homo sapiens, A-375, 72 h, read-out: cell viability, A375 GP, 10μΜ): 6.6% |
| CC[C@@H]1C(=O)N(C)c2cnc(Nc3ccc(C(=O)N[C@H]4CC[C@H](N5CCN(CC6CC6)CC5)CC4)cc3OC)nc2N1C(C)C [BI6727 (Volasertib)] | 8.8 | 75.9 | 36.2 | 43.0 | 26.5 | 0.363 | 9.9 | 0.4 | 37.1 | 16.8 | 2.7 | 65.8 | 63.2 | 1.3 | 29.8 | 21.7 | 22.8 | 28.0 |  |
